The values that follow come from patent publication US10899736B2, “Processes and intermediates for making a JAK inhibitor” (Incyte Corporation, priority 2018, dated 2021).

Structures are written as SMILES.

The assay concerns the target T1, human JAK1 (a.a. 837-1142) catalytic domain (Homo sapiens, UniProt P23458).
T1 construct: human JAK1 (a.a. 837-1142); His tag (N); made in house; host or cells: insect cells (baculovirus)
As to the kind of experiment: In vitro JAK kinase assay (HTRF, phosphorylation of biotinylated peptide). As to conditions: measured at 1 mM ATP. It is filed as biochemical. The method, then:
The compound of Formula I was tested for inhibitory activity of JAK targets according to the following in vitro assay described in Park et al., Analytical Biochemistry 1999, 269, 94-104. The catalytic domains of human JAK1 (a.a. 837-1142) and JAK2 (a.a. 828-1132) with an N-terminal His tag were expressed using baculovirus in insect cells and purified. The catalytic activity of JAK1 and JAK2 was assayed by measuring the phosphorylation of a biotinylated peptide. The phosphorylated peptide was detected by homogenous time resolved fluorescence (HTRF). IC50s of compounds were measured for each kinase in the 40 micro L reactions that contain the enzyme, ATP and 500 nM peptide in 50 mM Tris (pH 7.8) buffer with 100 mM NaCl, 5 mM DTT, and 0.1 mg/mL (0.01%) BSA. For the 1 mM IC50 measurements, ATP concentration in the reactions was 1 mM. Reactions were carried out at room temperature for 1 hr and then stopped with 20 μL 45 mM EDTA, 300 nM SA-APC, 6 nM Eu-Py20 in assay buffer (Perkin Elmer, Boston, Mass.). Binding to the Europium labeled antibody took place for 40 minutes and HTRF signal was measured on a Fusion plate reader (Perkin Elmer, Boston, Mass.).

T1 sequence (P23458 849-1154): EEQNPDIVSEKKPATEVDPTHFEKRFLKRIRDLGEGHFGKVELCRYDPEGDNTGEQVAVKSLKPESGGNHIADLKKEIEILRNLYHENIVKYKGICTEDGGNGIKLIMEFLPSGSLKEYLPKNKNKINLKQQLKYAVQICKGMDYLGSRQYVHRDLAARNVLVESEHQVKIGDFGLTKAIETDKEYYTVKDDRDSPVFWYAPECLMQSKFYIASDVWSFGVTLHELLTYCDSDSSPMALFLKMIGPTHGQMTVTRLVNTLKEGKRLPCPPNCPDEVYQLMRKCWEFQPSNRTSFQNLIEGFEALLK

Consider `N#CCC1(n2cc(-c3ncnc4[nH]ccc34)cn2)CN(C2CCN(C(=O)c3ccnc(C(F)(F)F)c3F)CC2)C1` [Formula I, {1-{1-[3-fluoro-2-(trifluoromethyl)isonicotinoyl]piperidin-4-yl}-3-[4-(7H-pyrrolo[2,3-d]pyrimidin-4-yl)-1H-pyrazol-1-yl]azetidin-3-yl}acetonitrile], for which the IC50 was less than 5 nM.
